What all share (type): cell-based
Assay [1] deals with T1, ratP2X7 (Rattus norvegicus, UniProt Q64663).
T1 construct: expressed in transfected cells; host or cells: HEK-293
T1 sequence (Q64663 1-595): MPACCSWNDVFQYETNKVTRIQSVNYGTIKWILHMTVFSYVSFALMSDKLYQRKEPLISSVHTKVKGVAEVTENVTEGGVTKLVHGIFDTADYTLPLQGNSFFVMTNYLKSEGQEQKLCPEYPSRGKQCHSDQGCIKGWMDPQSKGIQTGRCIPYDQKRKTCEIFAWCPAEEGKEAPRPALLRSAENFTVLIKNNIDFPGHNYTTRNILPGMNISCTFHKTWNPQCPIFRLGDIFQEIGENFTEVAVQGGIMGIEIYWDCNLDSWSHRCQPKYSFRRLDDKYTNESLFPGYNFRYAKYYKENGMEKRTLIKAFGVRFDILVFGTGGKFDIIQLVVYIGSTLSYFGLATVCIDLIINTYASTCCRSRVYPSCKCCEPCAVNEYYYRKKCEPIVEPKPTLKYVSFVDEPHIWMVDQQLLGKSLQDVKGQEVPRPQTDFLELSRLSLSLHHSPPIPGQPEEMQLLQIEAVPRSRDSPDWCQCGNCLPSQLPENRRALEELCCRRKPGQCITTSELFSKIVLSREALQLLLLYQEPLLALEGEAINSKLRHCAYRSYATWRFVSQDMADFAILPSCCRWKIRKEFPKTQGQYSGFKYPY
Kind of assay: P2X7 channel calcium-influx assay (Fluo-8, FLIPR TETRA), rat P2X7. The settings on record: HEK-293 cells stably transfected with P2X7; Bz-ATP at EC80; low divalent cation buffer; read-out: ratP2X7 (activity range). Put shortly:
(§1)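 HEK-293 cells stably expressing the respective species' P2X7, Fluo-8 NW loaded 1 h at RT in low divalent buffer (0.3 mM Ca2+, 0 mM Mg2+). Compound preincubated 5 min, then Bz-ATP at EC80; FLIPR calcium influx over 3 min. IC50 from % inhibition relative to reference antagonist A438079, reported as potency bins.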

The target of assay [2] is T2, human P2X7 channel (Homo sapiens, UniProt Q99572).
T2 construct: expressed in transfected cells; host or cells: HEK-293
T2 sequence (Q99572 1-595): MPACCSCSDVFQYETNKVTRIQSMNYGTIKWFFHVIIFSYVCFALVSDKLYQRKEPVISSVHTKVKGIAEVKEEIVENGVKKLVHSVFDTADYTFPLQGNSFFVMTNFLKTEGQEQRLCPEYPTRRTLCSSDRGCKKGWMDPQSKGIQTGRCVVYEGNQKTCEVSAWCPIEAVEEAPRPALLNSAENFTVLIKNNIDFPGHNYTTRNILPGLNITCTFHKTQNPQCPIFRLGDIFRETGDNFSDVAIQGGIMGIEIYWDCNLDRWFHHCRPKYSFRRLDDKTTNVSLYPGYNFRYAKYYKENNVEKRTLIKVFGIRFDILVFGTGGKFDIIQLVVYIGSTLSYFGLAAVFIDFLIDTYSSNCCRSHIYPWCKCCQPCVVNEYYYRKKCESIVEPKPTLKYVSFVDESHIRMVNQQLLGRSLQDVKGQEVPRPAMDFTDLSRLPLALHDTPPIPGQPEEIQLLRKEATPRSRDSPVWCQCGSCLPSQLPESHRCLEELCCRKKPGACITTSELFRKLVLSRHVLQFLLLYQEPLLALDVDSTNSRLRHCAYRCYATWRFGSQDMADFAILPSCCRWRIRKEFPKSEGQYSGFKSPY
Kind of assay: human P2X7 channel assay by automated patch-clamp (QPatch 16X). To be noted: HEK-293 cells expressing P2X7; current evoked by 100 microM BzATP; whole-cell, held at -80 mV; read-out: human Q-Patch (activity range). Put shortly: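 Whole-cell patch clamp on HEK-293 cells expressing P2X7, room temperature, held at −80 mV, CsF internal and NaCl external (pH 7.4). Currents evoked by 100 microM BzATP, four controls then with compound at 1, 10, 100 and 1000 nM; peak inward current normalized, IC50 from dose-response fit, reported as potency bins.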
Background: The patch-clamp technique gives a direct electrical read-out from membranes.

Assay [3] has as its target T3, mouseP2X7 (Mus musculus, UniProt Q9Z1M0).
T3 construct: expressed in transfected cells; host or cells: HEK-293
T3 sequence (Q9Z1M0 1-595): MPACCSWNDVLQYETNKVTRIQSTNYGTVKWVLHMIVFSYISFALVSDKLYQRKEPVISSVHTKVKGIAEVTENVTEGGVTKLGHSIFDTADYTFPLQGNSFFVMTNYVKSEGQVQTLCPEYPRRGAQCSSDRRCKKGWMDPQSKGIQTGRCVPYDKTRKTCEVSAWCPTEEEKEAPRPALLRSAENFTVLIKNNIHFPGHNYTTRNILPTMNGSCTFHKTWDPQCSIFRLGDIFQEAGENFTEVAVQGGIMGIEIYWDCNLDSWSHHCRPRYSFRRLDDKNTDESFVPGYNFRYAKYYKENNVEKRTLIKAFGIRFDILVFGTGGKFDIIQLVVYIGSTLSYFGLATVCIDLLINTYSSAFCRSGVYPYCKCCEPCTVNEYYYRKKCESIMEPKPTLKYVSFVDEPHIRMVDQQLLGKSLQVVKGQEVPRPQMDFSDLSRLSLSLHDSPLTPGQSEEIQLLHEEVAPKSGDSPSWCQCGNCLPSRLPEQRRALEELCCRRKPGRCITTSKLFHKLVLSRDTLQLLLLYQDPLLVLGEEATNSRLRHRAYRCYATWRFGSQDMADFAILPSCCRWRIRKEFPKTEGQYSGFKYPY
Put plainly: P2X7 channel calcium-influx assay (Fluo-8, FLIPR TETRA), mouse P2X7. To be noted: HEK-293 cells stably transfected with P2X7; Bz-ATP at EC80; low divalent cation buffer; read-out: mouseP2X7 (activity range). Put shortly: as §1

In assay [4] the target is T4, humanP2X7 (Homo sapiens, UniProt Q99572).
T4 construct: expressed in transfected cells; host or cells: HEK-293
T4 sequence (Q99572 1-595): T2 sequence (Q99572 1-595)
Kind of assay: P2X7 channel calcium-influx assay (Fluo-8, FLIPR TETRA), human P2X7. The settings on record: HEK-293 cells stably transfected with P2X7; Bz-ATP at EC80; low divalent cation buffer; read-out: humanP2X7 (activity range). Put shortly: as §1

Here are results for 16 compounds from patent US20240368092A1, “2,4-Dihydro-3H-1,2,4-Triazol-3-One P2X7 Antagonists” (Breye Therapeutics ApS, priority 2021, published 2024).

On to `Cn1nc(Cc2ccccc2C(F)(F)F)n(CC2CCC(C(F)(F)F)CC2)c1=O` (stereo not shown) [Example 40, 2-methyl-5-(2-(trifluoromethyl)benzyl)-4-((4-(trifluoromethyl)cyclohexyl)methyl)-2,4-dihydro-3H-1,2,4-triazol-3-one], for which the IC50 in assay [1] was below 200 nM; in assay [2] it was 100 to 1000 nM; in assay [3], 1000 to 10000 nM; in assay [4], below 200 nM.
Consider `Cn1nc(Cc2ccc(F)cc2Cl)n(CCC2CCC(C)(C)CC2)c1=O` [Example 41, 5-(2-chloro-4-fluorobenzyl)-4-(2-(4,4-dimethylcyclohexyl)ethyl)-2-methyl-2,4-dihydro-3H-1,2,4-triazol-3-one], for which the IC50 in assay [1] was 1000 to 10000 nM; in assay [2] it was 1000 to 10000 nM; in assay [3] it was 10000 to 30000 nM; in assay [4], 200 to 1000 nM.
Regarding `Cn1nc(Cc2ccccc2Cl)n(CC2CCC(F)(F)CC2)c1=O` [Example 42, 5-(2-chlorobenzyl)-4-((4,4-difluorocyclohexyl)methyl)-2-methyl-2,4-dihydro-3H-1,2,4-triazol-3-one], the IC50 in assay [1] is below 200 nM; in assay [2], 10 to 100 nM; in assay [3] it was 200 to 1000 nM; in assay [4] it was below 200 nM.
With `O=c1n(CC2CC2)nc(Cc2c(F)cccc2Cl)n1CC1CCC(F)(F)CC1` [Example 43, 5-(2-chloro-6-fluorobenzyl)-2-(cyclopropylmethyl)-4-((4,4-difluorocyclohexyl)methyl)-2,4-dihydro-3H-1,2,4-triazol-3-one], the IC50 in assay [1] is below 200 nM; in assay [2], 10 to 100 nM; in assay [3], below 200 nM; in assay [4], below 200 nM.
With `O=c1n(CC(F)(F)F)nc(Cc2c(F)cccc2Cl)n1CC1CCC(F)(F)CC1` [Example 44, 5-(2-chloro-6-fluorobenzyl)-4-((4,4-difluorocyclohexyl)methyl)-2-(2,2,2-trifluoroethyl)-2,4-dihydro-3H-1,2,4-triazol-3-one], the IC50 is below 200 nM in assay [1], below 10 nM in assay [2], below 200 nM in assay [3] and below 200 nM in assay [4].
Turning to `Cn1nc(Cc2ccccc2F)n(CCC2CCC(C)(C)CC2)c1=O` [Example 45, 4-(2-(4,4-dimethylcyclohexyl)ethyl)-5-(2-fluorobenzyl)-2-methyl-2,4-dihydro-3H-1,2,4-triazol-3-one], the IC50 fell in the range of 1000 to 10000 nM in assay [1], 1000 to 10000 nM in assay [2], 10000 to 30000 nM in assay [3] and 1000 to 10000 nM in assay [4].
Consider `Cn1nc(Cc2ccccc2F)n(CCC2CCC(F)(F)CC2)c1=O` [Example 46, 4-(2-(4,4-difluorocyclohexyl)ethyl)-5-(2-fluorobenzyl)-2-methyl-2,4-dihydro-3H-1,2,4-triazol-3-one], for which the IC50 in assay [1] is 200 to 1000 nM; in assay [2] it was 1000 to 10000 nM; in assay [3] it was 1000 to 10000 nM; in assay [4] it was 1000 to 10000 nM.
In the case of `Cn1nc(Cc2ccccc2F)n(CC2CCC3(CC2)CC3)c1=O` [Example 47, 5-(2-fluorobenzyl)-2-methyl-4-(spiro[2.5]octan-6-ylmethyl)-2,4-dihydro-3H-1,2,4-triazol-3-one], the IC50 in assay [1] is below 200 nM; in assay [2] it was 100 to 1000 nM; in assay [3] it was 1000 to 10000 nM; in assay [4] it was 200 to 1000 nM.
Turning to `Cn1nc(Cc2ccccc2C(F)(F)F)n(CC2CCC3(CC2)CC3)c1=O` [Example 48, 2-methyl-4-(spiro[2.5]octan-6-ylmethyl)-5-(2-(trifluoromethyl)benzyl)-2,4-dihydro-3H-1,2,4-triazol-3-one], the IC50 in assay [1] was below 200 nM; in assay [2] it was 100 to 1000 nM; in assay [3], 1000 to 10000 nM; in assay [4], 200 to 1000 nM.
Take `Cn1nc(Cc2ccccc2C(F)(F)F)n(CCC2CCC(C)(C)CC2)c1=O` [Example 49, 4-(2-(4,4-dimethylcyclohexyl)ethyl)-2-methyl-5-(2-(trifluoromethyl)benzyl)-2,4-dihydro-3H-1,2,4-triazol-3-one]: the IC50 in assay [1] was 10000 to 30000 nM; in assay [2] it was 1000 to 10000 nM; in assay [3], 10000 to 30000 nM; in assay [4], 1000 to 10000 nM.
Regarding `O=c1n(Cc2ccccc2)nc(Cc2c(F)cccc2Cl)n1CC1CCC(F)(F)CC1` [Example 50, 2-benzyl-5-(2-chloro-6-fluorobenzyl)-4-((4,4-difluorocyclohexyl)methyl)-2,4-dihydro-3H-1,2,4-triazol-3-one], the IC50 in assay [1] is below 200 nM; in assay [2], below 10 nM; in assay [3] it was below 200 nM; in assay [4] it was below 200 nM.
Regarding `Cn1nc(Cc2ccccc2F)n(CC2CCC(C(F)(F)F)CC2)c1=O` (stereo not shown) [Example 51, 5-(2-fluorobenzyl)-2-methyl-4-((4-(trifluoromethyl)cyclohexyl)methyl)-2,4-dihydro-3H-1,2,4-triazol-3-one], the IC50 was below 200 nM in assay [1], 100 to 1000 nM in assay [2], 1000 to 10000 nM in assay [3] and 200 to 1000 nM in assay [4].
For `Cn1nc(Cc2ccc(F)cc2Cl)n(CC2CCC(C(F)(F)F)CC2)c1=O` (stereo not shown) [Example 52, 5-(2-chloro-4-fluorobenzyl)-2-methyl-4-((4-(trifluoromethyl)cyclohexyl)methyl)-2,4-dihydro-3H-1,2,4-triazol-3-one], the IC50 in assay [1] was below 200 nM; in assay [2], 100 to 1000 nM; in assay [3], 1000 to 10000 nM; in assay [4], 200 to 1000 nM.
`Cn1nc(Cc2c(F)cccc2Cl)n(CCO)c1=O` [Example 53, 5-(2-chloro-6-fluorobenzyl)-4-(2-hydroxyethyl)-2-methyl-2,4-dihydro-3H-1,2,4-triazol-3-one]: the IC50 is 10000 to 30000 nM in assay [1], 1000 to 10000 nM in assay [2], 10000 to 30000 nM in assay [3] and 10000 to 30000 nM in assay [4].
For `Cn1nc(Cc2ccccc2Cl)n(CC2CCCCCC2)c1=O` [Example 55, 5-[(2-chlorophenyl)methyl]-4-(cycloheptylmethyl)-2-methyl-2,4-dihydro-3H-1,2,4-triazol-3-one], the IC50 in assay [1] was below 200 nM; in assay [2], 100 to 1000 nM; in assay [3], 1000 to 10000 nM; in assay [4], 200 to 1000 nM.
With `Cn1nc(Cc2c(F)cccc2Cl)n(CC2(C)CCCCCC2)c1=O` [Example 56, 5-[(2-chloro-6-fluorophenyl)methyl]-2-methyl-4-[(1-methylcycloheptyl)methyl]-2,4-dihydro-3H-1,2,4-triazol-3-one], the IC50 is 1000 to 10000 nM in assay [1], 1000 to 10000 nM in assay [2], 10000 to 30000 nM in assay [3] and 1000 to 10000 nM in assay [4].
